Test results published in patent US5219855A, “Anxiolytic drug” (Mitsubishi Kasei Corporation, priority 1988, dated 1993).
Structures can show the parent of a compound that is named as a salt.

Target: T1, 5-HT1A receptor (Rattus norvegicus, UniProt P19327)
T1 construct: a rat brain was homogenized in Tris buffer and centrifuged; from tissue; host or cells: rat brain membrane preparation
T1 sequence (P19327 1-422): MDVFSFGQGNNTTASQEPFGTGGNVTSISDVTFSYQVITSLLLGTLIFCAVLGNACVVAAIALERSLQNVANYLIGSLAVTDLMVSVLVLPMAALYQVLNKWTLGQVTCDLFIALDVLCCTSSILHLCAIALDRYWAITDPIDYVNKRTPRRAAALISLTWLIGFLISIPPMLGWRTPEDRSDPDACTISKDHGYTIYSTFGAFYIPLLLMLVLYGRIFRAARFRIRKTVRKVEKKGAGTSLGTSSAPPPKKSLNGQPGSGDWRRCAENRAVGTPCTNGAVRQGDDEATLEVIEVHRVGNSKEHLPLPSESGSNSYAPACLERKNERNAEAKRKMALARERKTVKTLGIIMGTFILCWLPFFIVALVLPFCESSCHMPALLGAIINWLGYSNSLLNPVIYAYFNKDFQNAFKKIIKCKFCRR
Experiment: binding assay using [3H]8-OH-DPAT, rat brain membrane preparation
Protocol: To say more exactly, a rat brain was homogenized in Tris buffer and centrifuged. The resultant sediment was rehomogenized using Tris buffer and incubated at 37° C. for 10 minutes, followed by centrifugation. The resulting deposit was homogenized in Tris buffer containing pargyline, calcium chloride and ascorbic acid and subjected to binding assay (membrane preparation).
The assay was carried out by combining the membrane preparation with [3H]8-OH-DPAT and the test compound and then incubating at 37° C. for 10 minutes.
Subsequently, the mixture was immediately filtered through a Whatman GF/B filter and the radio-activity remaining on the filter was measured by liquid chromatography.
The binding capacity of the test compound to 5-HT1A receptor was expressed as Ki value calculated by the formula: [formula] wherein [L] denotes the concentration of [3H]8-OH-DPAT, kd represents the dissociation constant, and IC50 represents the concentration of the test compound required to produce a 50% inhibition of [3H]8-OH-DPAT binding.

| Compound | Ki [nM] |
| --- | --- |
| c1ccc(N2CCN(CCCCOc3ccc4c(c3)OCO4)CC2)cc1 [No. 4] | 10.1 |
| O=C1c2ccccc2S(=O)(=O)N1CCCCN1CCN(c2ncccn2)CC1 [Ipsapirone, 2-(4-(4-(2-pyrimidinyl)-1-piperazinyl)butyl)-1,2-benzisothiazol-3-(2H)one-1,1-dioxydehydrochloride, reference compound] | 2.2 |
| Fc1ccc(N2CCN(CCCOc3ccc4c(c3)OCO4)CC2)cc1 [No. 12] | 16 |
| c1ccc(N2CCN(CCCNc3ccc4c(c3)OCO4)CC2)cc1 [No. 11] | 18 |
| COc1cc(OCCCN2CCN(c3ccccc3)CC2)cc(OC)c1OC [No. 7] | 5.7 |
| O=C(CCN1CCN(c2ccccc2)CC1)Nc1ccc2c(c1)OCO2 [No. 10] | 25.4 |
| FC(F)(F)c1cccc(N2CCN(CCCCOc3ccc4c(c3)OCO4)CC2)c1 [No. 6] | 55.9 |
| c1ccc(N2CCN(CCCCOc3ccc4c(c3)OCCO4)CC2)cc1 [No. 19] | 16 |
| c1ccc(N2CCN(CCOc3ccc4c(c3)OCO4)CC2)cc1 [No. 16] | 127 |
| c1ccc(N2CCN(CCCOc3ccc4c(c3)OCCO4)CC2)cc1 [No. 15] | 5.7 |
| O=C(CCCN1CCN(c2ccccc2)CC1)c1ccc2c(c1)OCO2 [No. 17] | 5.7 |
| c1ccc(N2CCN(CCCOc3ccc4c(c3)OCO4)CC2)nc1 [No. 2] | 2.4 |
| Cc1ccccc1N1CCN(CCCOc2ccc3c(c2)OCO3)CC1 [No. 14] | 101 |
| Fc1ccc(N2CCN(CCCCOc3ccc4c(c3)OCO4)CC2)cc1 [No. 5] | 33.2 |

Continued by falling Ki, values first:

| Ki [nM] | Compound |
| --- | --- |
| 71.2 | c1ccc(N2CCN(CCCSc3ccc4c(c3)OCCO4)CC2)cc1 [No. 21] |
| 25.4 | [O-][S+](CCCN1CCN(c2ccccc2)CC1)c1ccc2c(c1)OCCCO2 (stereo not shown) [No. 22] |
| 14.3 | COc1ccc(OCCCN2CCN(c3ccccc3OC)CC2)cc1OC [No. 8] |
| 10.1 | c1cnc(N2CCN(CCCOc3ccc4c(c3)OCO4)CC2)nc1 [No. 3] |
| 10.1 | O=C(CCCCN1CCN(c2ccccc2)CC1)c1ccc2c(c1)OCO2 [No. 20] |
| 8 | OC(CCCN1CCN(c2ccccc2)CC1)c1ccc2c(c1)OCO2 (stereo not shown) [No. 18] |
| 8 | FC(F)(F)c1cccc(N2CCN(CCCOc3ccc4c(c3)OCO4)CC2)c1 [No. 13] |
| 4.7 | c1ccc(N2CCN(CCCOc3ccc4c(c3)OCO4)CC2)cc1 [No. 1] |
